Cc1c(C(=O)O)cc([N+](=O)[O-])cc1[N+](=O)[O-]
solubility (mole fraction)
Conditions	288.15 K	293.15 K	298.15 K	303.15 K	308.15 K	313.15 K	318.15 K	323.15 K	328.15 K	333.15 K
in acetonitrile	0.0071	0.0084	0.00994	0.012	0.0145	0.0176	0.0209	0.0248	0.0292	0.0341
in cyclohexane	1.4e-05	1.96e-05	2.69e-05	3.64e-05	4.87e-05	6.37e-05	8.12e-05	0.000103	0.000131	0.000166
in ethanol	0.0467	0.0526	0.0604	0.0695	0.0783	0.0882	0.099	0.11	0.123	0.134
in ethyl acetate	0.0237	0.0271	0.0312	0.0359	0.041	0.0467	0.0536	0.0611	0.0694	0.0781
in isopropanol	0.0102	0.0121	0.0147	0.017	0.0202	0.0232	0.0276	0.0327	0.0384	0.0442
in n-butanol	0.0109	0.0129	0.0152	0.0179	0.0209	0.0243	0.0284	0.034	0.0393	0.0457
in n-heptanol	0.0128	0.0146	0.017	0.0208	0.025	0.0295	0.0341	0.0396	0.0458	0.0524
in n-hexanol	0.00982	0.0114	0.0131	0.0151	0.0177	0.0208	0.0244	0.0288	0.0338	0.0394
in n-pentanol	0.012	0.0138	0.0165	0.0193	0.0226	0.026	0.0303	0.0356	0.0414	0.0478
in n-propanol	0.0126	0.0146	0.0169	0.0202	0.0239	0.0278	0.0326	0.0381	0.0442	0.0505
in sec-butanol	0.0114	0.0134	0.0158	0.0187	0.0219	0.0257	0.03	0.0349	0.0405	0.0467
in toluene	0.0174	0.0207	0.0242	0.0284	0.0328	0.0377	0.0434	0.0493	0.0558	0.0628
in water	1.67e-05	2.35e-05	3.5e-05	4.55e-05	5.87e-05	7.99e-05	0.000108	0.000137	0.000171	0.000218

Reference: BigSolDB 2.1
